Test [1] addresses Sodium-dependent serotonin transporter (Homo sapiens, UniProt P31645).
Description: Inhibition of 5-HT uptake at SERT (unknown origin)
Test [2] is filed under the species Homo sapiens. Description: Ratio of pKi for 5-HT2A receptor (unknown origin) to pKi for dopamine D2 receptor (unknown origin).
In test [3] the target is T1, 5-hydroxytryptamine receptor 2C (Homo sapiens, UniProt P28335).
T1 sequence (P28335 whole entry): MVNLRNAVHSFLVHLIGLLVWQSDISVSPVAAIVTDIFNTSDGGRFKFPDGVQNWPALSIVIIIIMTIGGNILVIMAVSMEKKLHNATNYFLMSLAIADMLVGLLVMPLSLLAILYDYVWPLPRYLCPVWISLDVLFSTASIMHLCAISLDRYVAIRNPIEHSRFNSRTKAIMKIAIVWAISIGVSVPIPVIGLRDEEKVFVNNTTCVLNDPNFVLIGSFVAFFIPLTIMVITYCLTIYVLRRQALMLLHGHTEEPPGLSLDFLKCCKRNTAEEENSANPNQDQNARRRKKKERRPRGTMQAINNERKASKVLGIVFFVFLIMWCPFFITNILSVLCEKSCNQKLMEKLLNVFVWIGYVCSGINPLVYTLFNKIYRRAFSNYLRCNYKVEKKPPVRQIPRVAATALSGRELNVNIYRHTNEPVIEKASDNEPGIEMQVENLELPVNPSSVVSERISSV
Description: Binding affinity to 5-HT2C receptor (unknown origin).

Test [4] has as its target T2, 5-hydroxytryptamine receptor 3A (Homo sapiens, UniProt P46098).
T2 sequence (P46098 whole entry): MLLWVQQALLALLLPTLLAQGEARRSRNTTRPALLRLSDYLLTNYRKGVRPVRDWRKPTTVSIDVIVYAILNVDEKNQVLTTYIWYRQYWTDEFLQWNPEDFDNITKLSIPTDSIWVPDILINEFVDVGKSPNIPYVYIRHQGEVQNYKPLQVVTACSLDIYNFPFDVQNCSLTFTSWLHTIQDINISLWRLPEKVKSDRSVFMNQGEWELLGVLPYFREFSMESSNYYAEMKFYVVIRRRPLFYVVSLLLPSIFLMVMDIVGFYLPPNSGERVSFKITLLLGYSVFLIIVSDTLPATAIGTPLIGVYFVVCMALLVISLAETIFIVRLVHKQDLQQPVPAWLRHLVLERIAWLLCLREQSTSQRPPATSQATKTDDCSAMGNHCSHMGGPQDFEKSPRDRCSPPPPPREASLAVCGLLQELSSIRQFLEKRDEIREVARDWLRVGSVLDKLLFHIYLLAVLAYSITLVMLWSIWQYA
Description: Binding affinity to 5-HT3 receptor (unknown origin).

For test [5], the target named is 5-hydroxytryptamine receptor 2A (Homo sapiens, UniProt P28223). The conditions noted are these: read-out: pKi (converted).
Chain of 5-hydroxytryptamine receptor 2A (P28223 whole entry): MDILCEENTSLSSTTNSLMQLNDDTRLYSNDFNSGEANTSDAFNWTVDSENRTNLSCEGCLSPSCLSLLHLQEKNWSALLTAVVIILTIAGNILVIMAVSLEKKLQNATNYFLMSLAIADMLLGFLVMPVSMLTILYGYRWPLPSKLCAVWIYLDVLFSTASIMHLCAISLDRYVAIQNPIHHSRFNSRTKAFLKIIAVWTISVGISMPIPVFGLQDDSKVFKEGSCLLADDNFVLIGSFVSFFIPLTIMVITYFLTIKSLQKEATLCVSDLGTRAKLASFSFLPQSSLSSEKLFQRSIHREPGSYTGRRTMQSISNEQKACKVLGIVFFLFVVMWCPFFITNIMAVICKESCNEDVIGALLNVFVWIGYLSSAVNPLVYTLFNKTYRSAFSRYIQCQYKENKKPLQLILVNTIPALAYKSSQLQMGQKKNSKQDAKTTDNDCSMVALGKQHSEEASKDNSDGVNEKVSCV
The target of test [6] is T3, 5-hydroxytryptamine receptor 1A (Homo sapiens, UniProt P08908).
T3 sequence (P08908 whole entry): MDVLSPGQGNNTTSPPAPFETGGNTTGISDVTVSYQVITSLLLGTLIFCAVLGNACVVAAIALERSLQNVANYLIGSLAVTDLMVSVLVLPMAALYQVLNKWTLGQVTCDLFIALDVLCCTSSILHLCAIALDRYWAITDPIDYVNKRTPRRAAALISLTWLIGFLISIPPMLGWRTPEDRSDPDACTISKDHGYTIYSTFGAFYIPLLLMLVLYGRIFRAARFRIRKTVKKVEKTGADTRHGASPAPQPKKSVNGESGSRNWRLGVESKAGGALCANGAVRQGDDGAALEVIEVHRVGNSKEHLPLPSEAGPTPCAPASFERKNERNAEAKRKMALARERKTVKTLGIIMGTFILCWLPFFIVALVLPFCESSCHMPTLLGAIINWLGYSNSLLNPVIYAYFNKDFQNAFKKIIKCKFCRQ
As to the kind of experiment: Binding affinity to 5-HT1A receptor (unknown origin). The conditions noted are these: read-out: pKi (converted).

Test [7] addresses D(2) dopamine receptor (Homo sapiens, UniProt P14416). As to the kind of experiment: Binding affinity to dopamine D2 receptor (unknown origin). The note with it: read-out: pKi (converted).
In test [8] the target is D(1A) dopamine receptor (Homo sapiens, UniProt P21728). As to the kind of experiment: Binding affinity to dopamine D1 receptor (unknown origin). The note with it: read-out: pKi (converted).
Chain of D(1A) dopamine receptor (P21728 whole entry): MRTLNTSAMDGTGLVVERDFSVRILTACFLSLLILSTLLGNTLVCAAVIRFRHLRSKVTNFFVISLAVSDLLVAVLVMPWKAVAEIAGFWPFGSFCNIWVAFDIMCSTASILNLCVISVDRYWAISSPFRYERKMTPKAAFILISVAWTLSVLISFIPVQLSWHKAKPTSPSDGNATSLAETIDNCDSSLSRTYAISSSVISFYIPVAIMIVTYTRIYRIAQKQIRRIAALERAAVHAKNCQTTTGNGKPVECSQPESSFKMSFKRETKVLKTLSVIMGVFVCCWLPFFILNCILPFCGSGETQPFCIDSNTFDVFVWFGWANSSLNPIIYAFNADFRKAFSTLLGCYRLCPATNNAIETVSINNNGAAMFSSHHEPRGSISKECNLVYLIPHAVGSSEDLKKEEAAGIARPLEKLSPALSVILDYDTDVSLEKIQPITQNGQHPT

Chain of Sodium-dependent serotonin transporter (P31645 whole entry): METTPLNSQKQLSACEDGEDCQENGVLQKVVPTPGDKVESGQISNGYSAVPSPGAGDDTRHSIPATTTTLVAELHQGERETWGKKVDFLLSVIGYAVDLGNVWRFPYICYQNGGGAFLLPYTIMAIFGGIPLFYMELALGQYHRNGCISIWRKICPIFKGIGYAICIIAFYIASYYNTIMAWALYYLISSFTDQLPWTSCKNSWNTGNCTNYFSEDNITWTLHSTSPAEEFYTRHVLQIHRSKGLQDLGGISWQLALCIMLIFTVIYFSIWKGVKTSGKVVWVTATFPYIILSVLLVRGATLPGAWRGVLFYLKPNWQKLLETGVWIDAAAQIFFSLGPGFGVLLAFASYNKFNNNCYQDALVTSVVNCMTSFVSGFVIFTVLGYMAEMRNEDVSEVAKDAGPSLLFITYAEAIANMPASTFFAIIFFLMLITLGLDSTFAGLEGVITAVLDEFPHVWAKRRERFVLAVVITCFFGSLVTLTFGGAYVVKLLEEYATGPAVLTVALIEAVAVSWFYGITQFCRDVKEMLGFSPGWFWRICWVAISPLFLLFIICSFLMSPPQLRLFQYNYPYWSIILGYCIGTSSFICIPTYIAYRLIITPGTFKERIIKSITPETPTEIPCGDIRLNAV
Chain of D(2) dopamine receptor (P14416 whole entry): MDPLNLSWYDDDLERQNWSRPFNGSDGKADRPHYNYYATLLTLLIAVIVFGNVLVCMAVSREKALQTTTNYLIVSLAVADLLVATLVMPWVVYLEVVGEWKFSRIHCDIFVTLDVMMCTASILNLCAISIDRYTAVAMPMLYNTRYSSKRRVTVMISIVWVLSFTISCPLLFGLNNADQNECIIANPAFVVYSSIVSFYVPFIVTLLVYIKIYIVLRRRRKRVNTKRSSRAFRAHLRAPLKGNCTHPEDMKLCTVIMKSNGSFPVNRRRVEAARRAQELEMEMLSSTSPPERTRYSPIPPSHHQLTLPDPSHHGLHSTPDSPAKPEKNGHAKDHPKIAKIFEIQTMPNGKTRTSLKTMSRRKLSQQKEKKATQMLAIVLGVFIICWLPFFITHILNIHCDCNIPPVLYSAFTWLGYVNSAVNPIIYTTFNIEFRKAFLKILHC

For orientation: IC50 means the concentration that gives 50% inhibition. High values mean a need for much substance, low ones inhibition by little substance. In turn, `c1ccc2c(N3CCN(CCc4ccc5[nH]cnc5c4)CC3)cccc2c1` came in with an IC50 in test [1] of 1760 nM. Besides, the Ratio pKi in test [2] was found to be 0.89. Besides, the Ki in test [3] is 64.6 nM; in test [4] it was 5250 nM; in test [5], 15.1 nM; in test [6], 126 nM; in test [7] it was 1.66 nM; in test [8], 3980 nM.

Values taken from ChEMBL document CHEMBL3046886, “Action of benzimidazolo-piperazinyl derivatives on dopamine receptors” (Med Chem Res, 2013).
